Test results reported in publication PMC6272564, “Synthesis and Biological Evaluation of Novel 6-Hydroxy-benzo[d][1,3]oxathiol-2-one Schiff Bases as Potential Anticancer Agents” (Molecules, 2015).

Legend:
[1] = test system: ACP-03; test: MTT cytotoxicity assay, ACP-03 gastric cancer cells; format: cell-based, human; conditions: IC50 with 95% confidence interval, triplicate, 72 h incubation
Procedure: (§1) In vitro anticancer activity of compounds 2, 3 and 4a–r was evaluated against three human cancer cell lines in comparison to doxorubicin by using MTT assay.
(§2) Compounds (0.312–20 μM) were tested for cytotoxic activity against three cancer cell lines: ACP-03 (gastric), SKMEL-19 (melanoma) and HCT-116 (colon). All cell lines were maintained in DMEM medium supplemented with 10% fetal bovine serum, 2 mM glutamine, 100 U/mL penicillin, and […] streptomycin at 37 °C with 5% CO2. Each compound was dissolved in DMSO and diluted with water to obtain a concentration of 20 μM. They were incubated with the cells for 72 h. The negative control received the same amount of DMSO (0.005% in the highest concentration). Doxorrubicin was used as a positive control. The cell viability was determined by reduction of the yellow dye 3-(4,5-dimethyl-2-thiazol)-2,5-diphenyl-2H-tetrazolium bromide (MTT) to a blue formazan product after 48 h as described by Mosmann.

[2] = test system: SKMEL-19; test: MTT cytotoxicity assay, SKMEL-19 melanoma cells; format: cell-based, human; conditions: IC50 with 95% confidence interval, triplicate, 72 h incubation
Procedure: as §1, §2

[3] = test system: HCT-116; test: MTT cytotoxicity assay, HCT-116 colon cancer cells; format: cell-based; conditions: Homo sapiens, IC50 with 95% confidence interval, triplicate, 72 h incubation
Procedure: as §1, §2

[4] = Cell membrane disruption (hemolysis) of mouse erythrocytes; format: cell-based; conditions: mouse erythrocytes (2% suspension), 2% mouse erythrocyte suspension, room temperature, tested 1.5 to 200 μg/mL, lysis 50% of Triton X-100
Procedure: The mechanical stability of red blood cells is a good parameter for in vitro screening of unspecific cytotoxicity, since the membrane of erythrocyte can suffer significant changes in its structural properties. In order to verify whether the cytotoxicity of the compounds was linked to the membrane disruption, the ability to induce lysis of mouse erythrocytes was investigated, and no membrane damage was found for all tested compounds (EC50 > 200 μg/mL).
The test was performed in 96-well plates using a 2% mouse erythrocyte suspension in 0.85% NaCl containing 10 mM CaCl2. The compounds diluted as mentioned above were tested at concentrations ranging from 1.5 to 200 μg/mL. After incubation at room temperature for 30 min and centrifugation, the supernatant was removed and the liberated hemoglobin was measured spectrophotometrically at 540 nm. DMSO was used as a negative control and Triton X-100 (1%) was used as positive control. EC50 is the calculated effective dose that induced lysis on 50% that of the Triton X-100 [37].

Row | Compound | IC50 ([1]; Homo sapiens, 72 h) | IC50 ([2]; Homo sapiens, SK-MEL19, 72 h) | IC50 [3] | EC50 at 30 min [4] | melting point | IC50 [1] | IC50 [2]
1 | O=c1oc2cc(O)c([N+](=O)[O-])cc2s1 [Compound 2, 6-Hydroxy-5-nitrobenzo[d][1,3]oxathiol-2-one] | > 10 µM | > 10 µM | > 10 µM | > 200 µg/mL | 180 to 182 °C | – | –
2 | Nc1cc2sc(=O)oc2cc1O [Compound 3, 5-Amino-6-hydroxybenzo[d][1,3]oxathiol-2-one] | > 10 µM | > 10 µM | > 10 µM | > 200 µg/mL | 194 to 195 °C | – | –
3 | N#Cc1ccc(/C=N/c2cc3sc(=O)oc3cc2O)cc1 [Compound 4a, (E)-4-((6-Hydroxy-2-oxobenzo[d][1,3]oxathiol-5-ylimino)methyl)benzonitrile] | > 10 µM | > 10 µM | > 10 µM | > 200 µg/mL | 261 to 263 °C | – | –
4 | O=c1oc2cc(O)c(/N=C/c3ccc([N+](=O)[O-])cc3)cc2s1 [Compound 4b, (E)-6-Hydroxy-5-(4-nitrobenzylideneamino)benzo[d][1,3]oxathiol-2-one] | < 5 µM | > 10 µM | > 10 µM | > 200 µg/mL | 223 to 224 °C | 4.8 µM | –
5 | O=c1oc2cc(O)c(/N=C/c3cccc([N+](=O)[O-])c3)cc2s1 [Compound 4c, (E)-6-Hydroxy-5-(3-nitrobenzylideneamino)benzo[d][1,3]oxathiol-2-one] | > 10 µM | > 10 µM | > 10 µM | > 200 µg/mL | 220 to 222 °C | – | –
6 | O=c1oc2cc(O)c(/N=C/c3ccc(Br)cc3)cc2s1 [Compound 4d, (E)-5-(4-Bromobenzylideneamino)-6-hydroxybenzo[d][1,3]oxathiol-2-one] | > 10 µM | > 10 µM | > 10 µM | > 200 µg/mL | 211 to 213 °C | – | –
7 | O=c1oc2cc(O)c(/N=C/c3cccc(Br)c3)cc2s1 [Compound 4e, (E)-5-(3-Bromobenzylideneamino)-6-hydroxybenzo[d][1,3]oxathiol-2-one] | > 10 µM | > 10 µM | > 10 µM | > 200 µg/mL | 179 to 180 °C | – | –
8 | O=c1oc2cc(O)c(/N=C/c3ccc(Cl)cc3)cc2s1 [Compound 4f, (E)-5-(4-Chlorobenzylideneamino)-6-hydroxybenzo[d][1,3]oxathiol-2-one] | > 10 µM | > 10 µM | > 10 µM | > 200 µg/mL | 210 to 212 °C | – | –
9 | O=c1oc2cc(O)c(/N=C/c3ccc(Cl)cc3Cl)cc2s1 [Compound 4g, (E)-5-(2,4-Dichlorobenzylideneamino)-6-hydroxybenzo[d][1,3]oxathiol-2-one] | > 10 µM | > 10 µM | > 10 µM | > 200 µg/mL | 221 to 223 °C | – | –
10 | O=c1oc2cc(O)c(/N=C/c3ccccc3)cc2s1 [Compound 4h, (E)-5-(Benzylideneamino)-6-hydroxybenzo[d][1,3]oxathiol-2-one] | > 10 µM | > 10 µM | > 10 µM | > 200 µg/mL | 232 to 233 °C | – | –
11 | CN(C)c1ccc(/C=N/c2cc3sc(=O)oc3cc2O)cc1 [Compound 4i, (E)-5-(4-(Dimethylamino)benzylideneamino)-6-hydroxybenzo[d][1,3]oxathiol-2-one] | > 10 µM | > 10 µM | > 10 µM | > 200 µg/mL | 199 to 201 °C | – | –
12 | COc1ccc(/C=N/c2cc3sc(=O)oc3cc2O)cc1 [Compound 4j, (E)-6-Hydroxy-5-(4-methoxybenzylideneamino)benzo[d][1,3]oxathiol-2-one] | > 10 µM | > 10 µM | > 10 µM | > 200 µg/mL | 177 to 178 °C | – | –
13 | O=c1oc2cc(O)c(/N=C/c3ccccc3O)cc2s1 [Compound 4k, (E)-6-Hydroxy-5-(2-hydroxybenzylideneamino)benzo[d][1,3]oxathiol-2-one] | > 10 µM | > 10 µM | > 10 µM | > 200 µg/mL | 252 to 253 °C | – | –
14 | O=c1oc2cc(O)c(/N=C/c3cccc(O)c3O)cc2s1 [Compound 4l, (E)-5-(2,3-Dihydroxybenzylideneamino)-6-hydroxybenzo[d][1,3]oxathiol-2-one] | > 10 µM | > 10 µM | > 10 µM | > 200 µg/mL | 244 to 246 °C | – | –
15 | O=c1oc2cc(O)c(/N=C/c3ccc(O)cc3O)cc2s1 [Compound 4m, (E)-5-(2,4-Dihydroxybenzylideneamino)-6-hydroxybenzo[d][1,3]oxathiol-2-one] | > 10 µM | 9.4 µM | > 10 µM | > 200 µg/mL | 284 to 285 °C (dec.) | – | –
16 | O=c1oc2cc(O)c(/N=C/c3cc(O)ccc3O)cc2s1 [Compound 4n, (E)-5-(2,5-Dihydroxybenzylideneamino)-6-hydroxybenzo[d][1,3]oxathiol-2-one] | > 10 µM | 5.6 µM | > 10 µM | > 200 µg/mL | 261 to 263 °C | – | –
17 | O=c1oc2cc(O)c(/N=C/c3cc([N+](=O)[O-])ccc3O)cc2s1 [Compound 4o, (E)-6-Hydroxy-5-(2-hydroxy-5-nitrobenzylideneamino)benzo[d][1,3]oxathiol-2-one] | > 10 µM | < 5 µM | > 10 µM | > 200 µg/mL | 293 to 294 °C | – | 2.8 µM
18 | O=c1oc2cc(O)c(/N=C/c3cc(Br)ccc3O)cc2s1 [Compound 4p, (E)-5-(5-Bromo-2-hydroxybenzylideneamino)-6-hydroxybenzo[d][1,3]oxathiol-2-one] | > 10 µM | > 10 µM | > 10 µM | > 200 µg/mL | 250 to 252 °C | – | –
19 | O=c1oc2cc(O)c(/N=C/c3ccc(-c4ccccn4)cc3)cc2s1 [Compound 4q, (E)-6-Hydroxy-5-(4-(pyridin-2-yl)benzylideneamino)benzo[d][1,3]oxathiol-2-one] | > 10 µM | > 10 µM | > 10 µM | > 200 µg/mL | 201 to 203 °C | – | –
20 | O=c1oc2cc(O)c(/N=C/c3ccc4c(c3)OCO4)cc2s1 [Compound 4r, (E)-5-(Benzo[d][1,3]dioxol-5-ylmethyleneamino)-6-hydroxybenzo[d][1,3]oxathiol-2-one] | > 10 µM | > 10 µM | > 10 µM | > 200 µg/mL | 232 to 233 °C | – | –
21 | COc1cccc2c1C(=O)c1c(O)c3c(c(O)c1C2=O)C[C@@](O)(C(=O)CO)C[C@@H]3O[C@H]1C[C@H](N)[C@H](O)[C@H](C)O1 [Dox, Doxorubicin, reference compound] | 0.274 µM | 0.045 µM | 0.1 µM | > 200 µg/mL | – | – | –
